According to patent US20260285850A1, “SUBSTITUTED OXAZOLIDINONES AND IMIDAZOLINONES AS HERBICIDES” (FMC CORPORATION, priority 2023, published 2026):

Experiments:
Type in all cases: in vivo
[1] = system: ryegrass, Italian (italian ryegrass, Lolium multiflorum); test: Test A preemergence soil spray, visual injury rating 0-100; settings: 10 days
How it was run: (§1)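 Visual injury ratings (0, no effect; 100, complete control) were assigned relative to untreated plants 10 days after treatment. Test chemicals, formulated with a surfactant-containing non-phytotoxic solvent, were applied in loam-sand soil either as a directed soil spray before emergence or to emerged plants, and plants were kept in a greenhouse.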

[2] = system: oat, wild (wild oat, Avena fatua); test: as above; settings: 10 days
How it was run: as §1

soybean (Glycine max) [3] = test: as above; settings: 10 days
How it was run: as §1

kochia (Bassia scoparia) [4] = test: as above; settings: 10 days
How it was run: as §1

[5] = system: palmer (palmer amaranth, palmer pigweed, Amaranthus palmeri); test: as above; settings: 10 days
How it was run: as §1

corn (Zea mays) [6] = test: as above; settings: 10 days
How it was run: as §1

[7] = system: ragweed (common ragweed, Ambrosia artemisiifolia); test: as above; settings: 10 days
How it was run: as §1

[8] = system: barnyardgrass (Echinochloa crus-galli); test: as above; settings: 10 days
How it was run: as §1

[9] = system: green foxtail (Setaria viridis); test: as above; settings: 10 days
How it was run: as §1

[10] = system: wheat (Triticum aestivum); test: as above; settings: 10 days
How it was run: as §1

[11] = system: blackgrass (Alopecurus myosuroides); test: as above; settings: 10 days
How it was run: as §1

[12] = system: barnyardgrass (Echinochloa crusgalli); test: Test B flooded paddy test, visual plant response rating 0-100; settings: 250 g ai/ha, Flood, applied to paddy water, evaluated after 13 days
How it was run: (§2)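 Treatment occurs at the 2-leaf stage by adding compound to floodwater standing 3 cm above the soil, a level kept for the whole test. Plants stay in the greenhouse 13 days before visual comparison with controls.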

[13] = system: sedge, umbrella (small-flower umbrella sedge, Cyperus difformis); test: as above; settings: 250 g ai/ha, Flood, applied to paddy water, evaluated after 13 days
How it was run: as §2

rice (Oryza sativa) = test: as above; settings: 250 g ai/ha, Flood, applied to paddy water, evaluated after 13 days
How it was run: as §2

[14] = system: ducksalad (Heteranthera limosa); test: as above; settings: 250 g ai/ha, Flood, applied to paddy water, evaluated after 13 days
How it was run: as §2

[15] = system: ryegrass, Italian (italian ryegrass, Lolium multiflorum); test: Test A postemergence application, visual injury rating 0-100
How it was run: as §1

[16] = system: oat, wild (wild oat, Avena fatua); test: as above
How it was run: as §1

soybean (Glycine max) [17] = test: as above
How it was run: as §1

kochia (Bassia scoparia) [18] = test: as above
How it was run: as §1

[19] = system: palmer (palmer amaranth, palmer pigweed, Amaranthus palmeri); test: as above
How it was run: as §1

[20] = system: galium (catchweed bedstraw, Galium aparine); test: as above
How it was run: as §1

corn (Zea mays) [21] = test: as above
How it was run: as §1

[22] = system: ragweed (common ragweed, Ambrosia artemisiifolia); test: as above
How it was run: as §1

[23] = system: barnyardgrass (Echinochloa crus-galli); test: as above
How it was run: as §1

[24] = system: green foxtail (Setaria viridis); test: as above
How it was run: as §1

[25] = system: wheat (Triticum aestivum); test: as above
How it was run: as §1

[26] = system: blackgrass (Alopecurus myosuroides); test: as above
How it was run: as §1

[27] = 62 g ai/ha, 0 = no effect, 100 = complete control
[28] = 62 g ai/ha, postemergence, 10 days, 0 = no effect, 100 = complete control
[29] = Postemergence, 16 g ai/ha, greenhouse 10 days, 0 no effect, 100 complete control

Structure (SMILES): COC(=O)C1C=CC(NC(=O)C2(C(F)(F)F)CN(c3cc(F)c(F)c(F)c3)C(=O)O2)C1 (mixture of isomers) [Compound 162]
- Ryegrass, Italian plant response rating ([1]; 16 g ai/ha, 0 to 100 scale): 0
- Ryegrass, Italian plant response rating (0-100) [1, 27]: 80
- Oat, Wild plant response rating ([2]; 16 g ai/ha, 0 to 100 scale): 20
- Oat, Wild plant response rating (0-100) [2, 27]: 90
- Soybean plant response rating (soybean (Glycine max) [3]; 16 g ai/ha, 0 to 100 scale): 10
- Soybean plant response rating (0-100) (soybean (Glycine max) [3]; [27]): 50
- Kochia plant response rating (kochia (Bassia scoparia) [4]; 16 g ai/ha, 0 to 100 scale): 0
- Kochia plant response rating (0-100) (kochia (Bassia scoparia) [4]; [27]): 40
- Pigweed, Palmer plant response rating ([5]; 16 g ai/ha, 0 to 100 scale): 0
- Pigweed, Palmer plant response rating (0-100) [5, 27]: 30
- Corn plant response rating (corn (Zea mays) [6]; 16 g ai/ha, 0 to 100 scale): 0
- Corn plant response rating (0-100) (corn (Zea mays) [6]; [27]): 70
- Ragweed plant response rating ([7]; 16 g ai/ha, 0 to 100 scale): 0
- Ragweed plant response rating (0-100) [7, 27]: 10
- Barnyardgrass plant response rating ([8]; 16 g ai/ha, 0 to 100 scale): 0
- Barnyardgrass plant response rating (0-100) [8, 27]: 80
- Foxtail, Green plant response rating ([9]; 16 g ai/ha, 0 to 100 scale): 0
- Foxtail, Green plant response rating (0-100) [9, 27]: 30
- Wheat plant response rating ([10]; 16 g ai/ha, 0 to 100 scale): 20
- Wheat plant response rating (0-100) [10, 27]: 90
- Blackgrass plant response rating ([11]; 16 g ai/ha, 0 to 100 scale): 0
- Blackgrass plant response rating (0-100) [11, 27]: 60
- Plant response rating, Barnyardgrass (0 to 100 scale, 0 is no effect and 100 is complete control) [12]: 20
- Plant response rating, Sedge, Umbrella (0 to 100 scale, 0 is no effect and 100 is complete control) [13]: 0
- Plant response rating, Rice (0 to 100 scale, 0 is no effect and 100 is complete control) (rice (Oryza sativa)): 0
- Plant response rating, Ducksalad (0 to 100 scale, 0 is no effect and 100 is complete control) [14]: 65
- Ryegrass, Italian plant response rating (0-100) [15, 28]: 70
- Ryegrass, Italian plant response rating (0 to 100 scale) [15, 29]: 30
- Oat, Wild plant response rating (0-100) [16, 28]: 90
- Oat, Wild plant response rating (0 to 100 scale) [16, 29]: 80
- Soybean plant response rating (0-100) (soybean (Glycine max) [17]; [28]): 70
- Soybean plant response rating (0 to 100 scale) (soybean (Glycine max) [17]; [29]): 60
- Kochia plant response rating (0-100) (kochia (Bassia scoparia) [18]; [28]): 70
- Kochia plant response rating (0 to 100 scale) (kochia (Bassia scoparia) [18]; [29]): 0
- Pigweed, Palmer plant response rating (0-100) [19, 28]: 50
- Pigweed, Palmer plant response rating (0 to 100 scale) [19, 29]: 10
- Galium plant response rating (0-100) [20, 28]: 60
- Galium plant response rating (0 to 100 scale) [20, 29]: 30
- Corn plant response rating (0-100) (corn (Zea mays) [21]; [28]): 100
- Corn plant response rating (0 to 100 scale) (corn (Zea mays) [21]; [29]): 100
- Ragweed plant response rating (0-100) [22, 28]: 40
- Ragweed plant response rating (0 to 100 scale) [22, 29]: 20
- Barnyardgrass plant response rating (0-100) [23, 28]: 100
- Barnyardgrass plant response rating (0 to 100 scale) [23, 29]: 50
- Foxtail, Green plant response rating (0-100) [24, 28]: 80
- Foxtail, Green plant response rating (0 to 100 scale) [24, 29]: 30
- Wheat plant response rating (0-100) [25, 28]: 90
- Wheat plant response rating (0 to 100 scale) [25, 29]: 90
- Blackgrass plant response rating (0-100) [26, 28]: 100
- Blackgrass plant response rating (0 to 100 scale) [26, 29]: 90
